In patent US12338256B2, “Aza-tetracyclic oxazepine compounds and uses thereof” (Genentech, Inc., priority 2022, dated 2025):
Read-outs that look alike come from different tables or passages of the source.

Columns and labels:
[1] = test system: H1975 (KRAS wild type human lung adenocarcinoma cell line); assay: KRAS 3D-Cell Proliferation Assay, H1975 (Example 503); format: cell-based; conditions: Homo sapiens, NCI-H1975, 168 h, H1975 3D culture, 7 days, CellTiter-Glo 3D; read-out: Prolif H1975 3D ATP IC50
In short: (§1)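 IC50 values derive from 4-parameter Hill fits of normalized luminescence, where DMSO sets 0% and 1 μM staurosporine 100% inhibition. 3D cultures in RPMI-1640 with 10% fetal bovine serum were exposed to compound for 7 days before CellTiter-Glo 3D lysis.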

[2] = test system: HPAC (homozygous mutant KRAS G12D human pancreatic cell line); assay: KRAS 3D-Cell Proliferation Assay, HPAC (Example 503); format: cell-based; conditions: Homo sapiens, 168 h, HPAC 3D culture, 7 days, CellTiter-Glo 3D, read-out: Prolif HPAC 3D ATP IC50
In short: as §1

Cc1nc(N)c(F)c(-c2nc3c4c(nc(OC[C@@]56CCCN5C[C@H](F)C6)nc4c2F)N2C[C@H]4CC[C@H](N4)[C@H]2[C@H](C(F)(F)F)O3)c1C(F)(F)F [Compound 256, 3-Fluoro-4-((5R,5aS,6S,9R)-1-fluoro-12-(((2R,7aS)-2-fluorotetrahydro-1H-pyrrolizin-7a(5H)-yl)methoxy)-5-(trifluoromethyl)-5a,6,7,8,9,10-hexahydro-5H-4-oxa-3,10a,11,13,14-pentaaza-6,9-methanonaphtho[1,8-ab]heptalen-2-yl)-6-methyl-5-(trifluoromethyl)pyridin-2-amine]
IC50 [1]: 93.4 nM
IC50 [2]: 13.9 nM

COC1(C(F)F)CN(CC2(COc3nc4c5c(nc(-c6cc(N)nc(C)c6C(F)(F)F)c(F)c5n3)O[C@@H](C)[C@@H]3[C@@H]5CC[C@H](CN43)N5)CC2)C1 [Compound 271, 4-((5S,5aS,6S,9R)-12-((1-((3-(difluoromethyl)-3-methoxyazetidin-1-yl)methyl)cyclopropyl)methoxy)-1-fluoro-5-methyl-5a,6,7,8,9,10-hexahydro-5H-4-oxa-3,10a,11,13,14-pentaaza-6,9-methanonaphtho[1,8-ab]heptalene-2-yl)-6-methyl-5-(trifluoromethyl)pyridin-2-amine]
IC50 [1]: 10900 nM
IC50 ([2]; HPAC): 4.49 nM

Cc1c(F)c(N)cc(-c2nc3c4c(nc(OC[C@]56C[C@H](F)CN5C[C@H](F)C6)nc4c2F)N2C[C@H]4CC[C@H](N4)[C@H]2[C@H](C)O3)c1C(F)(F)F [Compound 141, 5-((5S,5aS,6S,9R)-12-(((2R,6S,7ar)-2,6-Difluorotetrahydro-1H-pyrrolizin-7a(5H)-yl)methoxy)-1-fluoro-5-methyl-5a,6,7,8,9,10-hexahydro-5H-4-oxa-3,10a,11,13,14-pentaaza-6,9-methanonaphtho[1,8-ab]heptalen-2-yl)-2-fluoro-3-methyl-4-(trifluoromethyl)aniline]
IC50 [1]: 6240 nM
IC50 ([2]; HPAC): 6.92 nM

Cc1c(F)c(N)cc(-c2nc3c4c(nc(OC[C@]56COC[C@H]5CCN6C)nc4c2F)N2C[C@H]4CC[C@H](N4)[C@H]2[C@H](C)O3)c1C(F)(F)F (single isomer, unassigned) [134 (isomer 1)]
IC50 [1]: 2550 nM
IC50 ([2]; HPAC): 8.59 nM

COC1(CF)CN(CC2(COc3nc4c5c(nc(-c6cc(N)nc(C)c6C(F)(F)F)c(F)c5n3)O[C@@H](C)[C@@H]3[C@@H]5CC[C@H](CN43)N5)CC2)C1 [Compound 272]
IC50 [1]: 5480 nM
IC50 ([2]; HPAC): 4.58 nM

Cc1c(F)c(O)cc(-c2nc3c4c(nc(OC[C@@]56CCCN5C[C@H](F)C6)nc4c2F)N2C[C@H]4CC[C@H](N4)[C@H]2[C@H](C)O3)c1C(F)(F)F [Compound 202, 2-Fluoro-5-((5S,5aS,6S,9R)-1-fluoro-12-(((2R,7aS)-2-fluorotetrahydro-1H-pyrrolizin-7a(5H)-yl)methoxy)-5-methyl-5a,6,7,8,9,10-hexahydro-5H-4-oxa-3,10a,11,13,14-pentaaza-6,9-methanonaphtho[1,8-ab]heptalen-2-yl)-3-methyl-4-(trifluoromethyl)phenol]
IC50 [1]: 20000 nM
IC50 ([2]; HPAC): 2000 nM

Cc1nc(N)c(Cl)c(-c2nc3c4c(nc(OC[C@@]56CCCN5C[C@H](F)C6)nc4c2F)N2C[C@H]4CC[C@H](N4)[C@H]2[C@H](C)O3)c1C(F)(F)F [Compound 197, 3-Chloro-4-((5S,5aS,6S,9R)-1-fluoro-12-(((2R,7aS)-2-fluorotetrahydro-1H-pyrrolizin-7a(5H)-yl)methoxy)-5-methyl-5a,6,7,8,9,10-hexahydro-5H-4-oxa-3,10a,11,13,14-pentaaza-6,9-methanonaphtho[1,8-ab]heptalen-2-yl)-6-methyl-5-(trifluoromethyl)pyridin-2-amine]
IC50 [1]: 468 nM
IC50 ([2]; HPAC): 9.79 nM

Cc1c(F)c(N)cc(-c2nc3c4c(nc(OC[C@@H]5CC[C@H]6COCCN65)nc4c2F)N2C[C@H]4CC[C@H](N4)[C@H]2[C@H](C)O3)c1Cl [Compound 111, 4-Chloro-2-fluoro-5-((5S,5aS,6S,9R)-1-fluoro-12-(((6S,8aS)-hexahydro-1H-pyrrolo[2,1-c][1,4]oxazin-6-yl)methoxy)-5-methyl-5a,6,7,8,9,10-hexahydro-5H-4-oxa-3,10a,11,13,14-pentaaza-6,9-methanonaphtho[1,8-ab]heptalen-2-yl)-3-methylaniline]
IC50 [1]: 1840 nM
IC50 ([2]; HPAC): 14.1 nM

Cc1nc(N)cc(-c2nc3c4c(nc(OCC56C[C@@H](F)CN5C[C@H](F)C6)nc4c2F)N2C[C@H]4CC[C@H](N4)[C@H]2[C@H](C(F)(F)F)O3)c1C(F)(F)F [Compound 261, 4-((5R,5aS,6S,9R)-12-(((2R,6R)-2,6-Difluorotetrahydro-1H-pyrrolizin-7a(5H)-yl)methoxy)-1-fluoro-5-(trifluoromethyl)-5a,6,7,8,9,10-hexahydro-5H-4-oxa-3,10a,11,13,14-pentaaza-6,9-methanonaphtho[1,8-ab]heptalen-2-yl)-6-methyl-5-(trifluoromethyl)pyridin-2-amine]
IC50 [1]: 6100 nM
IC50 ([2]; HPAC): 107 nM

Cc1c(F)c(N)cc(-c2nc3c4c(nc(OC[C@@H]5CCC6CC(F)(F)CCN65)nc4c2F)N2C[C@H]4CC[C@H](N4)[C@H]2[C@H](C)O3)c1C(F)(F)F (single isomer, unassigned) [119 (isomer 2)]
IC50 [1]: 1700 nM
IC50 ([2]; HPAC): 7.95 nM

C[C@@H]1Oc2nc(-c3cc(N)cnc3C(F)(F)F)c(F)c3nc(OC[C@@]45CCCN4C[C@H](F)C5)nc(c23)N2C[C@H]3CC[C@H](N3)[C@@H]12 [Compound 178, 5-((5S,5aS,6S,9R)-1-Fluoro-12-(((2R,7aS)-2-fluorotetrahydro-1H-pyrrolizin-7a(5H)-yl)methoxy)-5-methyl-5a,6,7,8,9,10-hexahydro-5H-4-oxa-3,10a,11,13,14-pentaaza-6,9-methanonaphtho[1,8-ab]heptalene-2-yl)-6-(trifluoromethyl)pyridin-3-amine]
IC50 [1]: 9280 nM
IC50 ([2]; HPAC): 133 nM

Cc1nc(N)cc(-c2nc3c4c(nc(OCC5(CN6CCC(C(F)F)C6)CC5)nc4c2F)N2C[C@H]4CC[C@H](N4)[C@H]2[C@H](C)O3)c1C(F)(F)F (stereo partly drawn) [Compound 276, 4-((5S,5aS,6S,9R)-12-((1-((3-(difluoromethyl)pyrrolidin-1-yl)methyl)cyclopropyl)methoxy)-1-fluoro-5-methyl-5a,6,7,8,9,10-hexahydro-5H-4-oxa-3,10a,11,13,14-pentaaza-6,9-methanonaphtho[1,8-ab]heptalen-2-yl)-6-methyl-5-(trifluoromethyl)pyridin-2-amine]
IC50 [1]: 1620 nM
IC50 ([2]; HPAC): 1.82 nM

Cc1nc(N)cc(-c2nc3c4c(nc(OCC5(CN6C[C@@H](C)O[C@@H](C)C6)CC5)nc4c2F)N2C[C@H]4CC[C@H](N4)[C@H]2[C@H](C)O3)c1C(F)(F)F [Compound 218, 4-((5S,5aS,6S,9R)-12-((1-(((2R,6S)-2,6-Dimethylmorpholino)methyl)cyclopropyl)methoxy)-1-fluoro-5-methyl-5a,6,7,8,9,10-hexahydro-5H-4-oxa-3,10a,11,13,14-pentaaza-6,9-methanonaphtho[1,8-ab]heptalen-2-yl)-6-methyl-5-(trifluoromethyl)pyridin-2-amine]
IC50 [1]: 384 nM
IC50 ([2]; HPAC): 1.36 nM

Cc1c(F)c(N)c(F)c(-c2nc3c4c(nc(OC[C@@]56CCCN5C[C@H](F)C6)nc4c2F)N2C[C@H]4CC[C@H](N4)[C@H]2[C@H](C)O3)c1CC(F)F [Compound 175, 4-(2,2-Difluoroethyl)-2,6-difluoro-3-((5S,5aS,6S,9R)-1-fluoro-12-(((2R,7aS)-2-fluorotetrahydro-1H-pyrrolizin-7a(5H)-yl)methoxy)-5-methyl-5a,6,7,8,9,10-hexahydro-5H-4-oxa-3,10a,11,13,14-pentaaza-6,9-methanonaphtho[1,8-ab]heptalen-2-yl)-5-methylaniline]
IC50 [1]: 2340 nM
IC50 ([2]; HPAC): 19.6 nM

Cc1c(F)c(N)nc(-c2nc3c4c(nc(OC[C@@]56CCCN5CC5(CC5(F)F)C6)nc4c2F)N2C[C@H]4CC[C@H](N4)[C@H]2[C@H](C)O3)c1C(F)(F)F (stereo partly drawn) [Compound 192, 6-((5S,5aS,6S,9R)-12-(((7a′S)-2,2-Difluorodihydro-1′H,3′H-spiro[cyclopropane-1,2′-pyrrolizin]-7a′(5′H)-yl)methoxy)-1-fluoro-5-methyl-5a,6,7,8,9,10-hexahydro-5H-4-oxa-3,10a,11,13,14-pentaaza[6,9]methanonaphtho[1,8-ab]heptalene-2-yl)-3-fluoro-4-methyl-5-(trifluoromethyl)pyridin-2-amine]
IC50 [1]: 1280 nM
IC50 ([2]; HPAC): 7.17 nM

Cc1nc(N)cc(-c2nc3c4c(nc(OCC5(CN6CCC(F)(F)C6)CC5)nc4c2F)N2C[C@H]4CC[C@H](N4)[C@H]2[C@H](C)O3)c1C(F)(F)F [Compound 288, 4-((5S,5aS,6S,9R)-12-((1-((3,3-difluoropyrrolidin-1-yl)methyl)cyclopropyl)methoxy)-1-fluoro-5-methyl-5a,6,7,8,9,10-hexahydro-5H-4-oxa-3,10a,11,13,14-pentaaza-6,9-methanonaphtho[1,8-ab]heptalene-2-yl)-6-methyl-5-(trifluoromethyl)pyridin-2-amine]
IC50 [1]: 9810 nM
IC50 ([2]; HPAC): 18.8 nM

Cc1c(Cl)c(N)cc(-c2nc3c4c(nc(OC[C@@]56CCCN5C[C@H](F)C6)nc4c2Cl)N2C[C@H]4CC[C@H](N4)[C@H]2[C@H](C)O3)c1C(F)(F)F [Compound 241, 2-Chloro-5-((5S,5aS,6S,9R)-1-chloro-12-(((2R,7aS)-2-fluorotetrahydro-1H-pyrrolizin-7a(5H)-yl)methoxy)-5-methyl-5a,6,7,8,9,10-hexahydro-5H-4-oxa-3,10a,11,13,14-pentaaza-6,9-methanonaphtho[1,8-ab]heptalen-2-yl)-3-methyl-4-(trifluoromethyl)aniline]
IC50 [1]: 1200 nM
IC50 ([2]; HPAC): 16.2 nM
